Measured values taken from patent publication US20240059693A1, “FUSED BICYCLIC PYRAZOLE DERIVATIVES AND METHODS OF USE THEREOF FOR THE TREATMENT OF HERPESVIRUSES” (Merck Sharp & Dohme LLC, priority 2020, published 2024).
Like-named read-outs stand apart in the source and are kept apart here.

Columns and labels:
[1] = molecular target: T1, Human cytomegalovirus DNA polymerase (Human cytomegalovirus, UniProt P08546); test: HCMV polymerase assay (AlphaLISA); format: biochemical; conditions: HCMV DNA polymerase 0.2 nM, 60 minutes at 37° C.; read-out: CMV (IC50)
T1 construct: made in house; host or cells: SF21 insect cells (baculovirus vector)
Outline: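 Baculovirus/SF21-expressed polymerase (HCMV 0.2 nM; VZV 0.4 nM) pre-incubated 30 min at room temperature with compound in HEPES pH 7.5 buffer, then 60 min at 37 °C with 1.6 nM DIG-primer/template, sub-nM to 24 nM dNTPs and 0.8 nM biotin-dUTP. AlphaLISA detection; IC50 from 4-parameter fit.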

[2] = molecular target: T2, varicella zoster virus DNA polymerase (Varicella-zoster virus, UniProt P09252); test: VZV polymerase assay (AlphaLISA); format: biochemical; conditions: VZV DNA polymerase 0.4 nM, 60 minutes at 37° C.
T2 construct: made in house; host or cells: SF21 insect cells (baculovirus vector)
Procedure: Human cytomegalovirus and varicella zoster virus DNA polymerases were expressed via baculovirus vector in SF21 cells and purified. Heterodimeric nucleic acid substrate used in the herpesvirus polymerase reactions was generated by annealing a 59-mer template to a 17-mer digoxigenin-labeled primer. Polymerase (HCMV final concentration of 0.2 nM; VZV final concentration of 0.4 nM) was combined with an inhibitor compound or DMSO in assay buffer (10 mM HEPES, pH 7.5, 25 mM KCl, 25 mM NaCl, 5 mM MgCl2, 5% glycerol, 0.67 mg/ml bovine serum albuminutes, and 1 mM tris(2-carboxyethyl)phosphine), and this mixture was pre-incubated for 30 minutes at room temperature in 384-well microtiter plates. The polymerization reaction was initiated by the addition of template/primer substrate (final concentration: 1.6 nM), and dNTPs (final concentration: 24 nM dCTP, 24 nMdGTP, 16 nM dATP, 16 nM dTTP, and 0.8 nM biotin-dUTP). After 60 minutes incubation at 37° C., reactions were terminated with quench buffer (25 mM HEPES pH 7.5, 100 mM NaCl, 0.25% Tween-20, 12 mM EDTA, and 1 mg/ml bovine serum albumin). Incorporation of biotinylated UTP was detected with 2.5-ug/ml anti-DIG AlphaLISA acceptor beads and 5-10 ug/ml streptavidin AlphaLISA donor beads (Perkin Elmer). Compound effects were normalized to the window defined by the controls (DMSO only and pre-quenched wells) and were fit using a 4-parameter algorithm to report an IC50.

HCMV Strain AD169 = test: Viral qPCR assay, HCMV in MRC-5 cells; format: cell-based, Human cytomegalovirus; conditions: read-out: CMV MRC5 Cell (EC50)
Outline: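 MRC-5 cells infected in suspension with HCMV AD169 (0.05-0.1 pfu/cell) and added to 10-point 3-fold compound dilutions, in growth media or media with 50% FBS. After ~72 h at 37 °C, lysates analysed by TaqMan qPCR against a plasmid standard curve, viral copies normalised to PPIA or not. EC50 from 4-parameter fit.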

VZV = test: Viral qPCR assay, VZV in MRC5 cells; format: cell-based, varicella zoster virus; conditions: read-out: VZV MRC5 Cell (IC50)
Procedure: (§1) MRCS cells, Vero cells, and MeWo cells were obtained from ATCC and were maintained at 37° C./5% CO2/90% relative humidity in Minimal Essential Medium with 10% fetal bovine serum, […] L-glutamine, 100 units/ml penicillin and 100 ug/ml streptomycin. Assay plates were prepared by dispensing compounds dissolved in DMSO into wells of 384 well collagen-coated plates using an ECHO acoustic dispenser. Each compound was tested in a 10-point, serial 3-fold dilution. Controls included uninfected cells and infected cells treated only with DMSO. Assays were initiated by mixing selected cells, in suspension, with virus, and dispensing 50 μl/well infected cells to pre-plated compounds. Plates were incubated at 37° C./5% CO2/90% relative humidity for ˜72 hrs to permit genomic replication, and infected cells were lysed by the addition of an equal volume of lysis buffer (10 mM Tris-HCl, pH8, 50 mM KCl, 2 mM MgCl2, 0.45% NP-40, 0.45% Tween-20, and 100 μg/ml proteinase K). An aliquot of the lysate was transferred to a 384-well PCR plate and incubated at 56° C. for 1 hour and then at 95° C. for 10 min. Levels of a viral gene and of the cellular control, PPIA (Thermo Fisher Assay ID=Hs04194521_s1), were measured in separate 10 μL qPCR assays using TaqMan® Gene Expression Master Mix (Applied Biosystems), and an 7900HT Fast Real-Time PCR System with 384-Well Block Module. 7-point, serial 10-fold dilutions of a plasmid standard were run on each plate to generate a standard curve, and genome copies numbers were calculated by plotting experimental Ct onto linear regression of the standard curve. Viral genome copy numbers were normalized by cellular control copy number, and compound effects were normalized to the window defined by the controls. Calculated % effects were fit using a 4-parameter algorithm, and EC50 was reported.
as §1, with “gene” for “gene and of the cellular control, PPIA (Thermo Fisher Assay ID=Hs04194521_s1),”, “in” for “in separate”, “Compound effects on viral” for “Viral”, “number” for “numbers were normalized by cellular control copy number, and compound effects”
(§2) VZV: Strain Street was maintained as an infected cell stock in MRC-5 cells. It was assayed in MeWo or MRCS cells and was used at 0.04-0.1 pfu/cell. The assays were performed in growth medium. Primer-probe set was Thermo Fisher Assay ID=AIPAEXQ. HSV-1: Strain F Street was assayed in Vero or MRCS cells and was used at 0.0005-0.004 pfu/cell in growth medium. Primer-probe set was Thermo Fisher Assay ID=AIBJZIB

HSV-1 Strain F = test: Viral qPCR assay, HSV-1 in MRC5 cells; format: cell-based, Herpes Simplex Virus type 1; conditions: read-out: HSV1 MRC5 Cell (EC50)
Procedure: as §1
as §1, with “gene” for “gene and of the cellular control, PPIA (Thermo Fisher Assay ID=Hs04194521_s1),”, “in” for “in separate”, “Compound effects on viral” for “Viral”, “number” for “numbers were normalized by cellular control copy number, and compound effects”
as §2

HSV2 = test: Viral qPCR assay, HSV2 in MRC5 cells; format: cell-based, Herpes Simplex Virus type 2; conditions: read-out: HSV2 MRC5 Cell (EC50)
Procedure: as §1
as §1, with “gene” for “gene and of the cellular control, PPIA (Thermo Fisher Assay ID=Hs04194521_s1),”, “in” for “in separate”, “Compound effects on viral” for “Viral”, “number” for “numbers were normalized by cellular control copy number, and compound effects”

[3] = Human betaherpesvirus 5, AD169, MRC5, 72 h
[4] = Human alphaherpesvirus 3, MRC5, 72 h
[5] = Human alphaherpesvirus 1, MRC5, 72 h
[6] = Human alphaherpesvirus 2, MRC5, 72 h

T1 sequence (P08546 whole entry): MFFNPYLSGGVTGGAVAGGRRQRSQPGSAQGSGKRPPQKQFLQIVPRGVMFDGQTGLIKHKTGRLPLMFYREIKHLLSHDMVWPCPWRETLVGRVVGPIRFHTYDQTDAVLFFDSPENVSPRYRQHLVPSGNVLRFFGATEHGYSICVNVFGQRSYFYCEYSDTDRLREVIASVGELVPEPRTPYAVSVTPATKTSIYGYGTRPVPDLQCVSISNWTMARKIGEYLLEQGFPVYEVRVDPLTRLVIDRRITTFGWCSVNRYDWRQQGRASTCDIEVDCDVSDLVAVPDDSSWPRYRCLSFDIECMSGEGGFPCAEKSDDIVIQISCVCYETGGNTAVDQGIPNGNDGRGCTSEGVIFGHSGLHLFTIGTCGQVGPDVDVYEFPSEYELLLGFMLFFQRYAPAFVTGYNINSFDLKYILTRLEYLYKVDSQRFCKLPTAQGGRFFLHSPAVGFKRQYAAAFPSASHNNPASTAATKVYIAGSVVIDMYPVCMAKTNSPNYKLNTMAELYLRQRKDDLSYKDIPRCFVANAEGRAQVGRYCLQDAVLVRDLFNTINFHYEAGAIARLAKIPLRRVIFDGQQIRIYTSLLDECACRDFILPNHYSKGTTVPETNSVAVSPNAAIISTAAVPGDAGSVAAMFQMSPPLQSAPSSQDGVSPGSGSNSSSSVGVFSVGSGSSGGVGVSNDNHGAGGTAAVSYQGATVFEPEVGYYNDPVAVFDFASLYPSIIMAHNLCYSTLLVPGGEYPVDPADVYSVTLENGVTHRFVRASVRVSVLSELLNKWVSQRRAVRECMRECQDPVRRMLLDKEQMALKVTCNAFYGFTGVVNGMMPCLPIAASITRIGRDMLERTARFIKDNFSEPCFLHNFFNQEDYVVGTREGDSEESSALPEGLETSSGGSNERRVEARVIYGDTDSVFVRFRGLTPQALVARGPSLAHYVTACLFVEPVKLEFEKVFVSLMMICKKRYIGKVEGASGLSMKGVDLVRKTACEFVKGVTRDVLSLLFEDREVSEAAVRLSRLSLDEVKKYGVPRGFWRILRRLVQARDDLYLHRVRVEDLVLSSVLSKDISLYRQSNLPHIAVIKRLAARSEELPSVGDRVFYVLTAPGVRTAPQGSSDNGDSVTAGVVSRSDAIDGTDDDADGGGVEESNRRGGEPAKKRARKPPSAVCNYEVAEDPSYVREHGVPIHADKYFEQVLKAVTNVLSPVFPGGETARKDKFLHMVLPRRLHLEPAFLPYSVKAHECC
T2 sequence (P09252 whole entry): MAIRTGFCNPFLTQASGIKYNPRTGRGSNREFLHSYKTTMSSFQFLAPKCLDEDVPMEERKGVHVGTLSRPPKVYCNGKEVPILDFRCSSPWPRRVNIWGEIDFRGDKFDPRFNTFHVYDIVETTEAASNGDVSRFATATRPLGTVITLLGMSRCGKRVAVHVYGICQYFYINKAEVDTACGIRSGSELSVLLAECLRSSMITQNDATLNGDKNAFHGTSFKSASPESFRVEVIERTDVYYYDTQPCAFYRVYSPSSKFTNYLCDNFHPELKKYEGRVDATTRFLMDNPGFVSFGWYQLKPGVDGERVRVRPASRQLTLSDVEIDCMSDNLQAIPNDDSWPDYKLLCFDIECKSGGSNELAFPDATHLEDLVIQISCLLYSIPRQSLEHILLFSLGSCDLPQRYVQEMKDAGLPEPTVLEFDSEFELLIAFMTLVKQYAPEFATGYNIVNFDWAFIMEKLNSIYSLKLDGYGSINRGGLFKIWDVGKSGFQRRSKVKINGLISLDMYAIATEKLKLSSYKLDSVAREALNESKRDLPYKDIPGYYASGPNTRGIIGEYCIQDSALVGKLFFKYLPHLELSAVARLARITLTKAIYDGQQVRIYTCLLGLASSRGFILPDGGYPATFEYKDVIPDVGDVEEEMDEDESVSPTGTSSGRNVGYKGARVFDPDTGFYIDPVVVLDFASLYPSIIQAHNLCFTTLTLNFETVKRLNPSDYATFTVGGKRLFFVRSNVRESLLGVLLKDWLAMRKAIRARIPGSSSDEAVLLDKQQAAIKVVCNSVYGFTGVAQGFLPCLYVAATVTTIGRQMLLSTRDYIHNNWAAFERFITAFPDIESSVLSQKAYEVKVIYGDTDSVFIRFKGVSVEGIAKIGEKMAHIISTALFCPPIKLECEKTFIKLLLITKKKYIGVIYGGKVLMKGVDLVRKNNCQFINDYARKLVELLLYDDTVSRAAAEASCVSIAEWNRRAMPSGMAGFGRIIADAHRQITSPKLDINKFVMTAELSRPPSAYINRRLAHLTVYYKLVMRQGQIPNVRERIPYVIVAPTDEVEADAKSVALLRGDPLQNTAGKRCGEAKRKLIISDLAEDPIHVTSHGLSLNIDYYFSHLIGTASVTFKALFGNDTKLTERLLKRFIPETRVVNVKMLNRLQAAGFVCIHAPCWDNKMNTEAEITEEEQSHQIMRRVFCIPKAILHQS

SMILES | IC50 [1] | IC50 [2] | EC50 (HCMV Strain AD169; MRC5 cells, ~72 hrs) | IC50 (VZV; ~72 hrs) | EC50 (HSV-1 Strain F; ~72 hrs) | EC50 (HSV2; ~72 hrs) | EC50 (HCMV Strain AD169; [3]) | IC50 (VZV; [4]) | EC50 (HSV-1 Strain F; [5]) | EC50 (HSV2; [6])
Cn1nc(C(=O)NCc2ccc(Cl)cc2)c2c1CC(CC1CCC(=O)N1)C2 (single isomer, unassigned) [Compound 128] | 1060 nM | 289 nM | – | – | – | – | – | – | – | –
O=C1CC[C@H](CN2Cc3c(C(=O)NCc4ccc(Cl)cc4)nn(-c4cnsn4)c3C2)N1 [Compound 22] | 11 nM | – | 313 nM | 413 nM | 231 nM | 251 nM | – | – | – | –
O=C1CC[C@H](CN2Cc3c(C(=O)NCc4ccc(Cl)cc4)nn(-c4ncco4)c3C2)N1 [Compound 23] | 17.2 nM | – | – | – | – | – | 130 nM | 325 nM | 224 nM | 136 nM
O=C1CC[C@H](CN2Cc3c(C(=O)NCc4ccc(Cl)cc4)nn(-c4ncccn4)c3C2)N1 [Compound 28] | 15.2 nM | – | 108 nM | 210 nM | 139 nM | 89.5 nM | – | – | – | –
O=C1CC[C@@H](CN2Cc3c(C(=O)NCc4ccc(Cl)cc4)nn(-c4ncccn4)c3C2)N1 [Compound 31] | 26.9 nM | – | – | – | – | – | 435 nM | 1470 nM | 1040 nM | 1410 nM
O=C1CC[C@@H](CN2Cc3c(C(=O)NCc4ccc(Cl)cc4)nn(-c4nccs4)c3C2)N1 [Compound 42] | 25.9 nM | – | – | – | – | – | 940 nM | 1050 nM | 996 nM | 1100 nM
O=C1CC[C@@H](CN2Cc3c(C(=O)NCc4ccc(Cl)cc4)nn(C(F)F)c3C2)N1 [Compound 45] | 37.8 nM | – | – | – | – | – | 798 nM | 1030 nM | 1990 nM | 1040 nM
Cn1nc(C(=O)NCc2ccc(Cl)cc2)c2c1CN(C[C@@H]1CCC(=O)N1)C2 [Compound 47] | 38.1 nM | – | – | – | – | – | 328 nM | 657 nM | 878 nM | 611 nM
Cn1nc(C(=O)NCc2ccc(Cl)cc2)c2c1CN(C[C@H]1CC(F)C(=O)N1)C2 (stereo partly shown) [Compound 78] | 252 nM | – | – | – | – | – | 2880 nM | 2870 nM | 3030 nM | 2220 nM
Cn1nc(C(=O)NCc2ccc(Cl)cc2)c2c1CN(C[C@@H]1CC(F)C(=O)N1)C2 (stereo partly shown) [Compound 79] | 69.6 nM | – | – | – | – | – | 232 nM | 1170 nM | 1180 nM | 935 nM
Cn1nc(C(=O)NCc2ccc(Cl)cc2)c2c1CN(C[C@@H]1CC(F)(F)C(=O)N1)C2 [Compound 82] | 60.3 nM | – | – | – | – | – | 250 nM | 1450 nM | 2880 nM | 1020 nM
CCC(C1CCC(=O)N1)N1Cc2c(C(=O)NCc3ccc(Cl)cc3)nn(C)c2C1 (stereo not shown) [Compound 90] | 31.7 nM | – | 212 nM | 1230 nM | 1320 nM | 1180 nM | – | – | – | –
Cn1nc(C(=O)NCc2ccc(Cl)cc2)c2c1CN(CC13CC1CC(=O)N3)C2 (stereo not shown) [Compound 95] | 127 nM | – | – | – | – | – | 632 nM | 4550 nM | 3300 nM | 3720 nM
O=C1N[C@@H](CN2Cc3c(C(=O)NCc4ccc(Cl)cc4)nn(C(F)F)c3C2)CO1 [Compound 99] | 5.07 nM | – | – | – | – | – | 60.5 nM | 53.1 nM | 79.5 nM | 43.2 nM
CC1c2c(c(C(=O)NCc3ccc(Cl)cc3)nn2C)CN1C(C)C1CCC(=O)N1 (stereo not shown) [Compound 111] | 57.9 nM | – | 125 nM | 402 nM | 557 nM | 248 nM | – | – | – | –
CC1c2c(c(C(=O)NCc3ccc(Cl)cc3)nn2C)CN1C(C)C1CCC(=O)N1 (stereo not shown) [Compound 112] | 105 nM | – | 148 nM | 263 nM | 294 nM | 233 nM | – | – | – | –
Cn1nc(C(=O)NCc2ccc(Cl)cc2)c2c1C1(CCC1)N(C[C@H]1CCC(=O)N1)C2 [Compound 124] | 141 nM | – | 581 nM | 2160 nM | 3360 nM | 2350 nM | – | – | – | –
